The values below come from PMC7170901, “Design and efficient synthesis of pyrazoline and isoxazole bridged indole C-glycoside hybrids as potential anticancer agents” (Scientific Reports, 2020).

The target in one data set is T1, COX-2 enzyme (Homo sapiens, UniProt P35354).
T1 construct: purchased Bio Vision (BioVision), USA K547 / k547–100
T1 sequence (P35354 18-604): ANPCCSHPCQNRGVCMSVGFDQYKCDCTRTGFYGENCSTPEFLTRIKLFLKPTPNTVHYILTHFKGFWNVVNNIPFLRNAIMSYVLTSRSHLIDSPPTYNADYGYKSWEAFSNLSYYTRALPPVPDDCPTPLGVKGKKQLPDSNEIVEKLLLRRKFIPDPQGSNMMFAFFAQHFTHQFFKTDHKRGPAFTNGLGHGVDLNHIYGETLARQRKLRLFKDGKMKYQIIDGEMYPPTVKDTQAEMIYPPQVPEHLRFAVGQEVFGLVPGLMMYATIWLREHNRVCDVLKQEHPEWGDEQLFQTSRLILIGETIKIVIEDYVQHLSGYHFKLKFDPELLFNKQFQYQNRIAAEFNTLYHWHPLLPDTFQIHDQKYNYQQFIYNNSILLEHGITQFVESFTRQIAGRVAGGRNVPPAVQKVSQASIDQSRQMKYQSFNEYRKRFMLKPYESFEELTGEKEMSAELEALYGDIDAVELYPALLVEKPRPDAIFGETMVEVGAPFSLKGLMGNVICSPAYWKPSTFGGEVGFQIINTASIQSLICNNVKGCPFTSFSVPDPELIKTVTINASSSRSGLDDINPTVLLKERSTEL
Briefly: Fluorescence-based COX-2 inhibitor screening assay. The format is biochemical. The method, then:
In this method we detect the fluorescence compound PGG2 which can easily be analysed with an excitation wavelength of 540 nm and emission wavelength of 590 nm. The result of COX-2 inhibitory activity has been summarised in Table 5 at two different concentrations.
Assay for cyclooxygenases (COXs) inhibition for COX-2 activity was determined by a fluorescence-based method using a COX-2 inhibitor screening assay kit (Bio vision, catalog # k547–100, S. millipitas Blvd, USA) in a total volume of 100 μL according to the directions provided with the kit manufacturer. The inhibitory activities of the tested compounds were based on the fluorometric detection of Prostaglandin G2 the intermediate product generated by the COX enzyme. The enzymes were preincubated for 5 min at 25 °C with the test compounds prior to addition of arachidonic acid. Celecoxib was used as positive control. Fluorescence was measured (Ex/Em = 540/590 nm) kinetically at 25 °C for 5–10 minutes. Two time point was chosen in the linear range of the plot and obtained the corresponding values (RFU1 and RFU2) The COX-2 inhibitory activity was calculated according to the equation. % Relative inhibition = Slope of EC − Slope of S/Slope of EC × 100. Where EC is the enzyme control and S is sample screen and slope of all the sample is calculated by dividing the net ΔRFU(RFU2 − RFU1) values by the ΔT (T2 − T1).

In a further data set the test system is MCF-7 cells. Briefly: LDH cytotoxicity assay. In kind it is cell-based. The following applies: MCF-7, 25 µM; for cytotoxicity at 25 µM: Homo sapiens, MCF7, 48 h, read-out: % Cytotoxicity (LDH release relative to maximum LDH control); for % Cytotoxicity (LDH release relative to maximum LDH control): 48 h, 25 µM. The text has this: When living cells treated with a cytotoxic compound, they could either stop growing and dividing, or die through either of two distinct processes i.e. necrosis or apoptosis. Basically, cells undergoing necrosis (accidental cell death) swell and lose membrane integrity before shutting down and releasing their intracellular contents into the surrounding environment. This type of cell death is usually triggered by external factors such as toxic chemical or traumatic physical events. When the cell membranes are damaged or compromised in any way, lactate dehydrogenase (LDH), a soluble yet stable enzyme found inside every living cell, gets released into the surrounding extracellular space. The presence of this enzyme in the culture medium can be used as a cell death marker. The relative amounts of live and dead cells within the medium can then be quantitated by measuring the amount of released LDH using a colorimetric or fluorometric LDH cytotoxicity assay.
Cytotoxicity was assessed with an LDH-cytotoxicity detection kit (Hi media, CCK036), Assays was performed according to assay protocol. Compound was taken at 25 μM concentration. The % of Cytotoxicity was calculated by this formula.
% Cytotoxicity = 100 × A − C/B − C, Where, A = Average absorbance of test. Average absorbance of background control (or vehicle control if applicable), B = Average absorbance of maximum LDH control − Average absorbance of volume correction control C = Average absorbance of untreated control − Average absorbance of background control.
Lactate Dehydrogenase Cell Assay Materials & Methods: (Himedia, product code; […]
Lactate dehydrogenase (LDH) is a cytoplasmic enzyme present in all mammalian cells. Plasma membrane of live cells is impermeable to LDH. However it is rapidly released into the culture medium when plasma membrane is damaged. The quantity of the leaked LDH is used as a measure of cell cytotoxicity. Due to low molecular weight (35kDa) LDH is easily released from the cells even with very minor damage or perturbations in the membrane. This makes the LDH release assay very sensitive.
This Kit has been designed for rapid determination of cell cytotoxicity using an enzyme coupled […]
Lactate Dehydrogenase (LDH) is based on an enzyme coupled reaction in which the LDH released from cells with damaged membrane reduces the tetrazolium dye to a colored formazan product. The reaction takes place in two steps - Step 1:
LDH catalyzes the conversion of lactate to pyruvate via reduction of NAD+ to NADH.
NADH thus generated reduces the tetrazolium dye to a colored formazan product which can be measured spectrophotometrically.
• Kit contents: CCK036(A) LDH reagent 5 x 5ml -20 °C in dark CCK036(B) Lysis solution 5ml -20 °C in dark
CCK036(C) Stop solution 25ml -20 °C in dark
• Cells in appropriate medium
• Adjustable pipettes and a repeat pipettor
• 96-well plate for culturing the cells
• 96-well plate reader capable of measuring the Absorbance at 450nm and more than […]
It is necessary to include different types of controls depending on application of LDH assay.
1. Maximum LDH control: It is recommended to perform maximum LDH estimation to determine total amount of LDH present in the cells.
2. Background control: Significant amount of LDH is present in the serum used for supplementing the culture medium. This contributes to the background absorbance / […]
without cells. Absorbance/fluorescence of background control wells should be subtracted from absorbance / fluorescence values of experimental wells to get corrected
3. Untreated control: Untreated control, also known as vehicle control should be included in the assay to obtain LDH values generated due to the solvent in which test compound is […]
(1 picture or pasted object on this page, not shown here) […]
dissolved. Untreated control wells contain the solvent at a concentration used for dissolving […]
• Preparation of cells: Freshly harvested MCF-7 cells for assay. Seeded in the 96well […]

Data set [1] concerns MCF-7 breast cancer cells. Briefly: MTT cell viability assay in MCF-7 cells. The format is cell-based. The following applies: Homo sapiens, MCF7; for viability at 1 µM: MCF-7, 1 µM; for viability at 1 µM / viability at 10 µM / viability at 25 µM: read-out: Cell Viability (%) ± SD; for viability at 10 µM: MCF-7, 10 µM; for viability at 25 µM: MCF-7, 25 µM; for IC50: MCF-7, MTT, five concentrations (1.0, 5.0, 10.0, 25 and 50 µM).

At COX-2 enzyme, `O=C(/C=C/c1c[nH]c2ccccc12)C[C@@H]1O[C@H](CO)[C@@H](O)[C@H](O)[C@H]1O` [Compound 9, (E)-4-(1H-indol-3-yl)-1-((2S,3R,4R,5S,6R)-3,4,5-trihydroxy-6-(hydroxymethyl)tetrahydro-2H-pyran-2-yl)but-3-en-2-one] showed an inhibition at 25 µM of 25% and an inhibition at 50 µM of 71%. For the same compound, in the data set with MCF-7 cells, the cytotoxicity at 25 µM stood at 12.9% and the “% Cytotoxicity (LDH release relative to maximum LDH control)” value is 13%. Further, in data set [1], the viability at 1 µM came to 79.7 ± 1.18%, the viability at 10 µM came out at 62.3 ± 3.6%, the viability at 25 µM worked out at 53.7 ± 4% and half-maximal inhibition (IC50) required 30 µM.
On COX-2 enzyme, `O=C(/C=C/c1c[nH]c2ccc(Cl)cc12)C[C@@H]1O[C@H](CO)[C@@H](O)[C@H](O)[C@@H]1O` [Compound 20, (E)-4-(5-chloro-1H-indol-3-yl)-1-((2S,3S,4R,5S,6R)-3,4,5-trihydroxy-6-(hydroxymethyl)tetrahydro-2H-pyran-2-yl)but-3-en-2-one] registered an inhibition at 25 µM of 13.7% and an inhibition at 50 µM of 39%. Besides, in the data set with MCF-7 cells, the cytotoxicity at 25 µM was 7.78% and the “% Cytotoxicity (LDH release relative to maximum LDH control)” value stood at 8%. Further, in data set [1], the viability at 1 µM was determined as 79.2 ± 2.6%, the viability at 10 µM came to 58.7 ± 2.4%, the viability at 25 µM turned out to be 47.3 ± 7.6% and the half-maximal inhibitory concentration (IC50) came out at 21 µM.
As to `OC[C@H]1O[C@@H](CC2=NNC(c3c[nH]c4ccccc34)C2)[C@H](O)[C@@H](O)[C@H]1O` (stereo partly shown) [Compound 25, (2 S,3 R,4 R,5 R,6 R)-2-((5-(1H-indol-3-yl)-4,5-dihydro-1H-pyrazol-3-yl)methyl)-6-(hydroxy-methyl)tetrahydro-2H-pyran-3,4,5-triol], on COX-2 enzyme, the inhibition at 25 µM was 6.7% and the inhibition at 50 µM was 27%. In the data set with MCF-7 cells, the cytotoxicity at 25 µM was found to be 21.8% and the “% Cytotoxicity (LDH release relative to maximum LDH control)” value is 22%. Further, in data set [1], the viability at 1 µM came out at 66 ± 4.7%, the viability at 10 µM turned out to be 34 ± 2.5%, the viability at 25 µM was determined as 19.9 ± 2.9% and the IC50 was found to be 4.67 µM.
At COX-2 enzyme, `O=[N+]([O-])c1ccc2[nH]cc(-c3cc(C[C@@H]4O[C@H](CO)[C@@H](O)[C@H](O)[C@H]4O)no3)c2c1` [Compound 34, (2 R,3 S,4 R,5 R,6 S)-2-(hydroxymethyl)-6-((5-(5-nitro-1H-indol-3-yl)isoxazol-3-yl)methyl) tetrahydro-2H-pyran-3,4,5-triol] gave an inhibition at 25 µM of 4.9% and an inhibition at 50 µM of 59%. In the data set with MCF-7 cells, the cytotoxicity at 25 µM was found to be 31.2% and the “% Cytotoxicity (LDH release relative to maximum LDH control)” value turned out to be 31%. Also, in data set [1], the viability at 1 µM worked out at 41.3 ± 3.1%, the viability at 10 µM turned out to be 28.4 ± 0.9%, the viability at 25 µM turned out to be 23.1 ± 4.4% and the IC50 is 0.71 µM.
`OC[C@H]1O[C@@H](Cc2cc(-c3c[nH]c4ccccc34)on2)[C@H](O)[C@@H](O)[C@H]1O` [Compound 37, (2 S,3 R,4 R,5 R,6 R)-2-((5-(1H-indol-3-yl)isoxazol-3-yl)methyl)-6-(hydroxymethyl) tetrahydro-2H-pyran-3,4,5-triol]: 50 µM produced 95% inhibition against COX-2 enzyme. In addition, the cytotoxicity at 25 µM with MCF-7 cells is 36.4%. Moreover, in data set [1], the viability at 1 µM is 30.8 ± 4.2%, the viability at 10 µM was determined as 21.2 ± 3.8% and the viability at 25 µM stood at 19.1 ± 3.5%.

By inhibition is commonly meant the change of the read-out against control, counted positive when it falls. Read a low inhibition as a weak effect. For orientation: viability means a per cent measure of how many cells are alive, often set against a control. The term IC50 denotes the concentration needed to halve the response being measured. Low values mean inhibition by little substance, high ones a need for much substance.
